Patent publication US12157741B2, “Macrocyclic inhibitors of DYRK1A” (DANA-FARBER CANCER INSTITUTE, INC., priority 2018, dated 2024)
Where two headings read alike, the source gives them in different places.

Assays:
Assay type in all cases: binding
various enzymes [1] = biological target: various enzymes (Homo sapiens, UniProt O15264); conditions: compound 1 uM
Procedure: (§1) Ambit profiling was conducted in accordance with the manufacturer's instructions.

various enzymes [2] = biological target: T1, various enzymes (Homo sapiens, UniProt O75385); conditions: compound 1 uM
T1 sequence (O75385 1-1050): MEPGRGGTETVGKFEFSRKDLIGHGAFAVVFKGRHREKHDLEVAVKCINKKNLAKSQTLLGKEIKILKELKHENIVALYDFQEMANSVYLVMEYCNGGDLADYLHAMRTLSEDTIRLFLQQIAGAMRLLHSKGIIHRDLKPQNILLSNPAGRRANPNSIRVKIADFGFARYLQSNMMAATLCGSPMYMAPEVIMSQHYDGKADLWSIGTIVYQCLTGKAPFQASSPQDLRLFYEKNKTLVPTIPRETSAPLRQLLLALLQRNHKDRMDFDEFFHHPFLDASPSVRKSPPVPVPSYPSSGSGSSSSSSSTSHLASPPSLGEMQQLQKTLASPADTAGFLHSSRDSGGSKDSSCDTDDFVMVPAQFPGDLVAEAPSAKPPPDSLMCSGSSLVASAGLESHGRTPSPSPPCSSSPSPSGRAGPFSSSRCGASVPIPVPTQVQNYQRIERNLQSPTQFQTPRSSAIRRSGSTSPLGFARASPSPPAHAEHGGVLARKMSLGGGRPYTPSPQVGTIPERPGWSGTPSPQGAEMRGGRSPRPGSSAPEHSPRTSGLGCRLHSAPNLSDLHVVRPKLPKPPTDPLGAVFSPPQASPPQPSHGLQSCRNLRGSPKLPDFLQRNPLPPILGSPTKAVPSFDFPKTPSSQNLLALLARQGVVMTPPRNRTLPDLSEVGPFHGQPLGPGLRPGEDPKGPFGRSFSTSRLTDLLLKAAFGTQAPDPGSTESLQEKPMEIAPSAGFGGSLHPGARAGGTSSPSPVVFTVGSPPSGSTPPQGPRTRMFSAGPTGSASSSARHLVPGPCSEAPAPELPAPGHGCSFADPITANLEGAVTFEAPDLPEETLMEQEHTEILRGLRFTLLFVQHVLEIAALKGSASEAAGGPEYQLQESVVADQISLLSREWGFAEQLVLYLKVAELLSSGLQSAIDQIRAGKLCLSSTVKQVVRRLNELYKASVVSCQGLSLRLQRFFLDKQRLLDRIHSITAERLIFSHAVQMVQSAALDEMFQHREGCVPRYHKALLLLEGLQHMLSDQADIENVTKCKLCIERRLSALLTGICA
Procedure: as §1

various enzymes [3] = biological target: various enzymes (Homo sapiens, UniProt O75676); conditions: compound 1 uM
Procedure: as §1

various enzymes [4] = biological target: various enzymes (Homo sapiens, UniProt O76039); conditions: compound 1 uM
Procedure: as §1

various enzymes [5] = biological target: various enzymes (Homo sapiens, UniProt O95382); conditions: compound 1 uM
Procedure: as §1

various enzymes [6] = biological target: various enzymes (Homo sapiens, UniProt P00533, G719C)
Procedure: as §1

various enzymes [7] = biological target: various enzymes (Homo sapiens, UniProt P08581, M1250T)
Procedure: as §1

various enzymes [8] = biological target: various enzymes (Homo sapiens, UniProt P42336, E545A)
Procedure: as §1

various enzymes [9] = biological target: various enzymes (Homo sapiens, UniProt P51617); conditions: compound 1 uM
Procedure: as §1

various enzymes [10] = biological target: various enzymes (Homo sapiens, UniProt P51817); conditions: compound 1 uM
Procedure: as §1

various enzymes [11] = biological target: various enzymes (Homo sapiens, UniProt P53671); conditions: compound 1 uM
Procedure: as §1

various enzymes [12] = biological target: various enzymes (Homo sapiens, UniProt P54753); conditions: compound 1 uM
Procedure: as §1

various enzymes [13] = biological target: various enzymes (Homo sapiens, UniProt Q04912); conditions: compound 1 uM
Procedure: as §1

various enzymes [14] = biological target: various enzymes (Homo sapiens, UniProt Q14012); conditions: compound 1 uM
Procedure: as §1

various enzymes [15] = biological target: various enzymes (Homo sapiens, UniProt Q56UN5); conditions: compound 1 uM
Procedure: as §1

various enzymes [16] = biological target: various enzymes (Homo sapiens, UniProt Q8IU85); conditions: compound 1 uM
Procedure: as §1

various enzymes [17] = biological target: various enzymes (Homo sapiens, UniProt Q8N568); conditions: compound 1 uM
Procedure: as §1

various enzymes [18] = biological target: various enzymes (Homo sapiens, UniProt Q92772); conditions: compound 1 uM
Procedure: as §1

various enzymes [19] = biological target: various enzymes (Homo sapiens, UniProt Q9H2G2); conditions: compound 1 uM
Procedure: as §1

various enzymes [20] = biological target: various enzymes (Homo sapiens, UniProt Q9H2X6); conditions: compound 1 uM
Procedure: as §1

various enzymes [21] = biological target: various enzymes (Homo sapiens, UniProt Q9NSY1); conditions: compound 1 uM
Procedure: as §1

various enzymes [22] = biological target: various enzymes (Homo sapiens, UniProt Q9UL54); conditions: compound 1 uM
Procedure: as §1

various enzymes (Homo sapiens, UniProt O75676), sequence (O75676 whole entry): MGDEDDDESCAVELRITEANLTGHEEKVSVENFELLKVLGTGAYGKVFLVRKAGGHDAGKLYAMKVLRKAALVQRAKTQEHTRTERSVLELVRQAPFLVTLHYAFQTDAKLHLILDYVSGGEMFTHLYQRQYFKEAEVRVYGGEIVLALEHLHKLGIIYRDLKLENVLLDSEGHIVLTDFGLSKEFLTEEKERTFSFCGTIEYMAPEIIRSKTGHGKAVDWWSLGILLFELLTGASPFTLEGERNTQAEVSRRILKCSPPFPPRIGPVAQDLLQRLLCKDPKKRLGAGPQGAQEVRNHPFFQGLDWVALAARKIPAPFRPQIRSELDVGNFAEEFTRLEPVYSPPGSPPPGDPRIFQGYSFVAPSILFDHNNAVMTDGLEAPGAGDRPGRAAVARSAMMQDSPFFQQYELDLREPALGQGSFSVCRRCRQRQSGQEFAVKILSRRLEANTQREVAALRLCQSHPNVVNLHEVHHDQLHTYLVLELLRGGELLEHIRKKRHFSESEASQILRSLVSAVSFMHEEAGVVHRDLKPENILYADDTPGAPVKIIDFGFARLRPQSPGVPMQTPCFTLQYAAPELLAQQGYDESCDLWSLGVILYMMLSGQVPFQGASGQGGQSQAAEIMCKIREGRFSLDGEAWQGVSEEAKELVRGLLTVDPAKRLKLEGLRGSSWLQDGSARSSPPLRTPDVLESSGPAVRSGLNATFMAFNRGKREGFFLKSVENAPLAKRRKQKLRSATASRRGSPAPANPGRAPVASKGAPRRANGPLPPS
various enzymes (Homo sapiens, UniProt P53671), sequence (P53671 whole entry): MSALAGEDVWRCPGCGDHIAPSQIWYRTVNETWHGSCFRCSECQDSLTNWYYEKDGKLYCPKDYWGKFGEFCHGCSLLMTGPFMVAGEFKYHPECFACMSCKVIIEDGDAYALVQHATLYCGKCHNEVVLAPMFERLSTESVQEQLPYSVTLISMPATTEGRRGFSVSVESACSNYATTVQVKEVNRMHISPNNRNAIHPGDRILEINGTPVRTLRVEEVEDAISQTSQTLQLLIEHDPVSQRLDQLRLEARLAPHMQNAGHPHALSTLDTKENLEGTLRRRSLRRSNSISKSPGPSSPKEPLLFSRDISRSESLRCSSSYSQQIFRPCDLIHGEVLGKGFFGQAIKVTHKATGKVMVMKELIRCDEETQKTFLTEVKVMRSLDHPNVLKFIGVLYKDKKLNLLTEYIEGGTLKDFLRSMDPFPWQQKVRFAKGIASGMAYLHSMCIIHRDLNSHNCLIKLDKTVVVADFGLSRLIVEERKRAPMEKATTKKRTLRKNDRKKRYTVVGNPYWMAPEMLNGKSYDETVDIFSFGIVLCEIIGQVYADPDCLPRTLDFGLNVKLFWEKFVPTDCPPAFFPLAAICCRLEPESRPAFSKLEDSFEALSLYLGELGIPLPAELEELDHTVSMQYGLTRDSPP
various enzymes (Homo sapiens, UniProt O76039), sequence (O76039 whole entry): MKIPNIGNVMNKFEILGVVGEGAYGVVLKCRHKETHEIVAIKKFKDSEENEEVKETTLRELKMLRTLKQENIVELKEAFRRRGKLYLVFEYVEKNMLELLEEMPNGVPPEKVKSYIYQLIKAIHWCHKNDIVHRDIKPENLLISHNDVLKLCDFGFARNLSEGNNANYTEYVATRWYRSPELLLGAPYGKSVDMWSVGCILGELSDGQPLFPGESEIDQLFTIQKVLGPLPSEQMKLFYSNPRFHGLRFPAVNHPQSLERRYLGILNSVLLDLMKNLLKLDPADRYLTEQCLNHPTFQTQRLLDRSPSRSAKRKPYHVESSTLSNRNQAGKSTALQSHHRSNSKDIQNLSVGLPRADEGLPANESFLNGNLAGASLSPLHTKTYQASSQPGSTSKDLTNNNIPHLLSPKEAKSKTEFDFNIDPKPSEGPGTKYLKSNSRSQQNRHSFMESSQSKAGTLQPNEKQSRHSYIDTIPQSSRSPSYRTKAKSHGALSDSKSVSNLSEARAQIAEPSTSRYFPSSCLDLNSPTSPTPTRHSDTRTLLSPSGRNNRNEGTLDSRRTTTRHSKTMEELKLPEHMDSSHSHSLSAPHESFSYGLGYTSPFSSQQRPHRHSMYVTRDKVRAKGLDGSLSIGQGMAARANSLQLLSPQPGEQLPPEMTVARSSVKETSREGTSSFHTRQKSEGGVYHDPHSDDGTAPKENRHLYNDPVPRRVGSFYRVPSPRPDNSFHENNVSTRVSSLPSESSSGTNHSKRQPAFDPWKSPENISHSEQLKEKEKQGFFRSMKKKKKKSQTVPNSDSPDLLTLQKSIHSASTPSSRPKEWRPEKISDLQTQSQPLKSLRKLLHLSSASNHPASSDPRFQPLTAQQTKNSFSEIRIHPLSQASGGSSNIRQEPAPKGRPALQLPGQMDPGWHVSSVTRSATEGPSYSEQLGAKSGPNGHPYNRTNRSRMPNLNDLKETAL
various enzymes (Homo sapiens, UniProt Q8N568), sequence (Q8N568 whole entry): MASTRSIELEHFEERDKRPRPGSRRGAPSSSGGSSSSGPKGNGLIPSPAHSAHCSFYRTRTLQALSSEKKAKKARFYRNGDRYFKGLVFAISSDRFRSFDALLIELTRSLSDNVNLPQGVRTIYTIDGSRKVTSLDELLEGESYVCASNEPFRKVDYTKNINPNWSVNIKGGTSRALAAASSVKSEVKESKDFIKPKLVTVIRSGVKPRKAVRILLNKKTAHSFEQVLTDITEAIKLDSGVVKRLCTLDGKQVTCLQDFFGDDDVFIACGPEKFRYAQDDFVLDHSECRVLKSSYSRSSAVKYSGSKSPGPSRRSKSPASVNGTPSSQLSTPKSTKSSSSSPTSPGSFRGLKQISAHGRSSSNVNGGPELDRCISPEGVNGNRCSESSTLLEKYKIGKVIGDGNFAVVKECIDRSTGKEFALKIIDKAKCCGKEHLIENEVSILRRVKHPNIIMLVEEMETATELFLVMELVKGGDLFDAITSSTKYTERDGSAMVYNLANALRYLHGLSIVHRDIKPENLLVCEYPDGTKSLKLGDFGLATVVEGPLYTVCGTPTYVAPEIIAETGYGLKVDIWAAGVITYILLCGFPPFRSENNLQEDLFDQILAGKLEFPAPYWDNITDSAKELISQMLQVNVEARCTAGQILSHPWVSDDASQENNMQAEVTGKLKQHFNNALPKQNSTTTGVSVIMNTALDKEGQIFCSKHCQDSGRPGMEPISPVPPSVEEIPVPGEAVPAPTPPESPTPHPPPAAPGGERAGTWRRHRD
various enzymes (Homo sapiens, UniProt P54753), sequence (P54753 34-998): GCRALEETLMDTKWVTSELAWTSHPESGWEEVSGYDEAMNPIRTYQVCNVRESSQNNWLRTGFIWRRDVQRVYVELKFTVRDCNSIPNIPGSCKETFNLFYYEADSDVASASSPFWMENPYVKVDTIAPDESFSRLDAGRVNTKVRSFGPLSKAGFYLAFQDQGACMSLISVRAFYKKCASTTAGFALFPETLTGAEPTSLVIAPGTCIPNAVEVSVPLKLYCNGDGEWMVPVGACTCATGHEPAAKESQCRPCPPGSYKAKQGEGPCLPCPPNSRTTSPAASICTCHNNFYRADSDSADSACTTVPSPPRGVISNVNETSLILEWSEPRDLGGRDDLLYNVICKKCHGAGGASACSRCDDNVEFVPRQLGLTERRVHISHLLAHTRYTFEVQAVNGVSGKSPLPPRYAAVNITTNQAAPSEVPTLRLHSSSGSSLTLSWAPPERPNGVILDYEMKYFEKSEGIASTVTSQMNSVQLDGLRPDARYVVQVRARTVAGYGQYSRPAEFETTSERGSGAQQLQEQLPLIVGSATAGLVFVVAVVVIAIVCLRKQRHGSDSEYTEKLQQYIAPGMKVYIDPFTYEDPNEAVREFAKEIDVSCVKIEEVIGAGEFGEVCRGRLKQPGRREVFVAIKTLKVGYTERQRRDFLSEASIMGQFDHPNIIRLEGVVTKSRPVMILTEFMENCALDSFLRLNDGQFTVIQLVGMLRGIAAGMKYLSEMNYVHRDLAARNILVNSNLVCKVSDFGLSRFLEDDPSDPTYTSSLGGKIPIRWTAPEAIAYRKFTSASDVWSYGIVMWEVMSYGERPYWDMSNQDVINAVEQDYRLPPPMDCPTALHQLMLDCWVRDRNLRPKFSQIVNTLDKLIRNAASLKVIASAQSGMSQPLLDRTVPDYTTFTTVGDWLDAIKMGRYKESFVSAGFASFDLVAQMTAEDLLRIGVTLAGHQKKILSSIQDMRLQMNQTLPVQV
various enzymes (Homo sapiens, UniProt Q8IU85), sequence (Q8IU85 whole entry): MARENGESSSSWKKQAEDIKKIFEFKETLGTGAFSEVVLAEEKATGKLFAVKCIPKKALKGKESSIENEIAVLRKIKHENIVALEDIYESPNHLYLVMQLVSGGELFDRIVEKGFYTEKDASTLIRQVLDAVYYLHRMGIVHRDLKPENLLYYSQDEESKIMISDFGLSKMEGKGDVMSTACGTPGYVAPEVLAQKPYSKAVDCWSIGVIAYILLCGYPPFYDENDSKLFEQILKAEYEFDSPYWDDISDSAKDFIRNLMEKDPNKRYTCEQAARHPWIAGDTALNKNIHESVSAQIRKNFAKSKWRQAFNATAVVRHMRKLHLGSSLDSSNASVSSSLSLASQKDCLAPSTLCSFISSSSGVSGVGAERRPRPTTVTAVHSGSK
various enzymes (Homo sapiens, UniProt O15264), sequence (O15264 whole entry): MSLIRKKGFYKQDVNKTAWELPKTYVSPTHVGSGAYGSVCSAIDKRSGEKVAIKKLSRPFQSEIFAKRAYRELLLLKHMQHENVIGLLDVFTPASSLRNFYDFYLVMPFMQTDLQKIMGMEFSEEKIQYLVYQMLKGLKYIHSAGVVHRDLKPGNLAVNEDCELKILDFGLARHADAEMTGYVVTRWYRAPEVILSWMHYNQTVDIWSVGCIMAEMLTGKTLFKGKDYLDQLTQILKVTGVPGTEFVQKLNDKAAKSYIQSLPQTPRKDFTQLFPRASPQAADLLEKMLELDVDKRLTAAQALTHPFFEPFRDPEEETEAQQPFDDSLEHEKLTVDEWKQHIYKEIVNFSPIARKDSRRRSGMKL

| Compound | Ambit profiling: p38-delta (various enzymes [1]) | Ambit profiling: ULK1 (various enzymes [2]) | Ambit profiling: RPS6KA4(Kin.Dom.1-N-terminal) (various enzymes [3]) | Ambit profiling: RPS6KA4(Kin.Dom.2-C-terminal) (various enzymes [3]) | Ambit profiling: CDKL5 (various enzymes [4]) | Ambit profiling: ASK2 (various enzymes [5]) | Ambit profiling: IRAK1 (various enzymes [9]) | Ambit profiling: PRKX (various enzymes [10]) | Ambit profiling: LIMK2 (various enzymes [11]) | Ambit profiling: EPHB3 (various enzymes [12]) | Ambit profiling: MST1R (various enzymes [13]) | Ambit profiling: CAMK1 (various enzymes [14]) | Ambit profiling: YSK4 (various enzymes [15]) | Ambit profiling: CAMK1D (various enzymes [16]) | Ambit profiling: DCAMKL2 (various enzymes [17]) | Ambit profiling: CDKL2 (various enzymes [18]) | Ambit profiling: SLK (various enzymes [19]) | Ambit profiling: HIPK2 (various enzymes [20]) | Ambit profiling: BIKE (various enzymes [21]) | Ambit profiling: TAOK2 (various enzymes [22]) | also measured |
| --- | --- | --- | --- | --- | --- | --- | --- | --- | --- | --- | --- | --- | --- | --- | --- | --- | --- | --- | --- | --- | --- |
| CC(C)N1Cc2nn(C)cc2-c2cnc3[nH]cc(c3c2)-c2cn(nc2C(F)(F)F)CCCC1=O [Compound 45, (Z)-5-isopropyl-31-methyl-13-(trifluoromethyl)-11H,21H,31H-5-aza-2(3,5)-pyrrolo[2,3-b]pyridina-1(4,1),3(4,3)-dipyrazolacyclononaphan-6-one] | 100 | 75 | 98 | 100 | 68 | 54 | 1.4 | 100 | 100 | 97 | 70 | 91 | 17 | 60 | 100 | 14 | 2.8 | 6 | 1.2 | 28 | Ambit profiling: EGFR(G719C) (various enzymes [6]; compound 1 uM): 59; Ambit profiling: MET(M1250T) (various enzymes [7]; compound 1 uM): 4.3; Ambit profiling: PIK3CA(E545A) (various enzymes [8]; compound 1 uM): 56 |
| COc1c2c(nn1C)CN(C(C)C)C(=O)CCCn1cc(c(C(F)(F)F)n1)-c1c[nH]c3ncc-2cc13 [Compound 50, (Z)-5-isopropyl-35-methoxy-31-methyl-13-(trifluoromethyl)-11H,21H,31H-5-aza-2(3,5)-pyrrolo[2,3-b]pyridina-1(4,1),3(4,3)-dipyrazolacyclononaphan-6-one] | 99 | 93 | 62 | 100 | 100 | 98 | 2.1 | 100 | 64 | 62 | 42 | 53 | 0.1 | 38 | 90 | 20 | 0.4 | 13 | 10 | 69 | Ambit profiling: EGFR(G719C) (various enzymes [6]): 51; Ambit profiling: MET(M1250T) (various enzymes [7]): 4.2; Ambit profiling: PIK3CA(E545A) (various enzymes [8]): 82 |
